The values below come from PMC3944532, “Mode of Action of Diterpene and Characterization of Related Metabolites from the Soft Coral, Xenia elongata” (Marine Drugs, 2014).

Where two headings read alike, the source gives them in different places.

Data set [1] concerns D3 cells. The data set is described as follows: Apoptosis induction assay (MTT viability), apoptosis resistant D3 cells deficient in Bak and Bax. It counts as cell-based, mouse. How it is done:
In order to assess the pro-apoptotic activities of these compounds as a marker for their potential anticancer efficacy, methanol soluble fractions of Xenia extracts were tested for apoptosis induction in an MTT assay using the apoptosis competent W2 and apoptosis resistant D3 cells, as described in our previous work. […] To quantify apoptosis induction, viability was determined using an MTT assay. Measurements were taken at time 0 and 48 h after addition of compounds in different concentrations. Viability was calculated as the difference between time 0 (addition of compound) and 48 h. Apoptosis induction was defined as at least 20% death of W2 cells and a 10% or higher growth of D3 cells by MTT assay. The optimal concentration of the compounds for apoptosis induction was determined based on the dose response of the two cells lines by MTT assay. […]
Apoptosis induction in the presence of compounds (2, 3) was carried out in the following manner. […] Cell viability was determined using a modification of the MTT assay, where the reduction of yellow tertazolium salt (MTT—[…]) to purple formazan indicates mitochondrial activity, and thus cell viability. […] After 30 min incubation at 37 °C, with shaking, absorbance was read at 570 nm on a Spectra MAX 250 (Molecular Devices) plate reader. Differential growth from time 0 to 48 h was calculated. […]

Data set [2] relates to W2 cells. Briefly: Apoptosis induction assay (MTT viability), apoptosis competent W2 cells. It counts as cell-based, mouse. Conditions: for optimal concentration for apoptosis induction: MTT, 0 to 48 h, apoptosis induction = at least 20% death of W2 cells and 10% or higher growth of D3 cells; for cell death in W2 cells: apoptosis competent W2. The procedure: In order to assess the pro-apoptotic activities of these compounds as a marker for their potential anticancer efficacy, methanol soluble fractions of Xenia extracts were tested for apoptosis induction in an MTT assay using the apoptosis competent W2 and apoptosis resistant D3 cells, as described in our previous work. […] To quantify apoptosis induction, viability was determined using an MTT assay. Measurements were taken at time 0 and 48 h after addition of compounds in different concentrations. Viability was calculated as the difference between time 0 (addition of compound) and 48 h. Apoptosis induction was defined as at least 20% death of W2 cells and a 10% or higher growth of D3 cells by MTT assay. The optimal concentration of the compounds for apoptosis induction was determined based on the dose response of the two cells lines by MTT assay. […] Treatment of W2 and D3 cells with 0.1 µM staurosporine, a protein kinase inhibitor and potent inducer of apoptosis, was included as a positive control for apoptosis induction and for comparison. Thus, the diterpenes we have isolated and characterized effectively and specifically activate apoptosis in immortalized mammalian epithelial cells.
Apoptosis induction in the presence of compounds (2, 3) was carried out in the following manner. W2 (apoptosis competent) and D3 (apoptosis defective) cells were plated in 96- and 6-well plates and incubated for 24 h, after which they were evenly spread at about 50% confluency. At this time, compounds dissolved in DMSO and diluted in growth medium (DMEM) were added to the cells at various concentrations. DMSO concentration was kept at 0.5% in all wells. Plates were incubated for 24, 48 and 72 h. Cell viability was determined using a modification of the MTT assay, where the reduction of yellow tertazolium salt (MTT—[…]) to purple formazan indicates mitochondrial activity, and thus cell viability. Cells were incubated with 0.5 mg/mL MTT for 3 h. Supernatant was aspirated and DMSO was added to dissolve the formazan crystals. After 30 min incubation at 37 °C, with shaking, absorbance was read at 570 nm on a Spectra MAX 250 (Molecular Devices) plate reader. Differential growth from time 0 to 48 h was calculated. Starurosporine, an apoptosis inducer, and DMSO were used as positive and negative controls, respectively.

Data set [3] deals with HDAC9 (Homo sapiens, UniProt Q9UKV0). The data set is described as follows: HDAC inhibition assay, class II A, fluorogenic HDAC Class2a substrate. Conditions: up to 100 µM.
Sequence of HDAC9 (Q9UKV0 whole entry): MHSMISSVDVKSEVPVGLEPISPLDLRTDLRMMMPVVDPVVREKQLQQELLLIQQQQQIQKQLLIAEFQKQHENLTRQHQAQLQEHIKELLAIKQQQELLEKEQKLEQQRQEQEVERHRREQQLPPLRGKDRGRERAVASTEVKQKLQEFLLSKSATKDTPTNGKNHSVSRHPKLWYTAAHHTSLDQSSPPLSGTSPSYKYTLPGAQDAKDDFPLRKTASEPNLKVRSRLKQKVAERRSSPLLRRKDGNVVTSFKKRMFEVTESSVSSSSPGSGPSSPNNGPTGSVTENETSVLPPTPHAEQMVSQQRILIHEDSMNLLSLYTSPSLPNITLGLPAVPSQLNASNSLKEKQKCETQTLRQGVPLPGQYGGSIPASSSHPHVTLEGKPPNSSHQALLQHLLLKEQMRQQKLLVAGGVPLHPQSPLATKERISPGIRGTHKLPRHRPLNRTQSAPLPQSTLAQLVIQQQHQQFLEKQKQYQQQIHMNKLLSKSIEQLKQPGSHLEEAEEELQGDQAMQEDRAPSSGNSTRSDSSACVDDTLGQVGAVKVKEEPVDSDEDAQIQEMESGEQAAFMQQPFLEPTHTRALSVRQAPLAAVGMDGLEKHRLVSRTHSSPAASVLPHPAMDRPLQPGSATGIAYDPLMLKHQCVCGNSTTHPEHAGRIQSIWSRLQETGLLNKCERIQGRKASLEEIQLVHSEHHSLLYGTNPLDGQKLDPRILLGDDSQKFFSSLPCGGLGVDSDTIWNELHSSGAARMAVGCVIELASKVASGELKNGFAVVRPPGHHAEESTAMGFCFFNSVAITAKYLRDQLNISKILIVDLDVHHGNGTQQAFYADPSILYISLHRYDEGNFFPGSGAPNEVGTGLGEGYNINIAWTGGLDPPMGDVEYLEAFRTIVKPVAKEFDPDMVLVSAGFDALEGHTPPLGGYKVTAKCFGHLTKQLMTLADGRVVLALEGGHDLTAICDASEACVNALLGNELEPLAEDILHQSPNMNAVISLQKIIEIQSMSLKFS
Data set [4] concerns the target HDAC4 (Homo sapiens, UniProt P56524). Described as above. The conditions noted are these: up to 100 µM.
Data set [5] addresses HDAC2 (Homo sapiens, UniProt Q92769). Briefly: HDAC inhibition assay, class I, fluorogenic peptide RHKK(Ac)AMC. In kind it is biochemical. Conditions: up to 50 µM.
Data set [6] has as its target HDAC1 (Homo sapiens, UniProt Q13547). The description is as above. The conditions noted are these: up to 50 µM. It counts as biochemical.
Data set [7] deals with T1, HDAC6 (Homo sapiens, UniProt Q9UBN7).
T1 sequence (Q9UBN7 1-1215): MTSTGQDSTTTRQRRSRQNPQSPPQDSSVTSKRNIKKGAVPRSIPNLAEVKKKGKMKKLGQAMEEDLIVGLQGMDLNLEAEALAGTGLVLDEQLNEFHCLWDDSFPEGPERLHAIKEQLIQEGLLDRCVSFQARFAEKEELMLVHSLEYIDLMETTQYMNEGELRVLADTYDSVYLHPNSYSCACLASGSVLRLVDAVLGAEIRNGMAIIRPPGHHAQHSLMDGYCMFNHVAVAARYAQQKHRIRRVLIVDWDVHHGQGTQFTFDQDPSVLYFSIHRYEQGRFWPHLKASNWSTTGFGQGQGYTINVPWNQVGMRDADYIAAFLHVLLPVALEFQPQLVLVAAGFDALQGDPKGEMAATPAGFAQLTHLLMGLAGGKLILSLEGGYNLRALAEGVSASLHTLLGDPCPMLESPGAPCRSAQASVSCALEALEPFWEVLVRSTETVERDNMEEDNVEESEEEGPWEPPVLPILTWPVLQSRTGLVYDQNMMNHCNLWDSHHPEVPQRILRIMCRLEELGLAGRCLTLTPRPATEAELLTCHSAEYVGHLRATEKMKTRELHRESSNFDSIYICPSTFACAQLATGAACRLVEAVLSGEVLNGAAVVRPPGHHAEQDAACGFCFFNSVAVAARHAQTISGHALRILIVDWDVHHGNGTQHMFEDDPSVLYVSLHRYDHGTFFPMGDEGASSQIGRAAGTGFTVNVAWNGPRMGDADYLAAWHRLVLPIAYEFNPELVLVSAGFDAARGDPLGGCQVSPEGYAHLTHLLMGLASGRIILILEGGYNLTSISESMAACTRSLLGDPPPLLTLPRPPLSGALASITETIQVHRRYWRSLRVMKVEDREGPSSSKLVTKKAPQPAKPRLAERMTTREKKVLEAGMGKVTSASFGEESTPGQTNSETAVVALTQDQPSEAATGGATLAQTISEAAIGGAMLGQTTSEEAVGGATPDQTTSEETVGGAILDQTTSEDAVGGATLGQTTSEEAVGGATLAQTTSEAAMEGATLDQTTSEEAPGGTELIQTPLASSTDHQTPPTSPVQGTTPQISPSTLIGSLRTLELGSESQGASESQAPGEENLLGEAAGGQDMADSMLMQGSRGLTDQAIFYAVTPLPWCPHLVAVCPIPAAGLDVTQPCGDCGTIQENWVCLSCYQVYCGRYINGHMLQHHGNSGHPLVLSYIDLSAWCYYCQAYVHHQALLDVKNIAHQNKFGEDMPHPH
The data set is described as follows: HDAC inhibition assay, class II B, fluorogenic peptide RHKK(Ac)AMC. In kind it is biochemical.

For data set [8], the target named is T2, HDAC8 (Homo sapiens, UniProt Q9BY41).
T2 sequence (Q9BY41 1-377): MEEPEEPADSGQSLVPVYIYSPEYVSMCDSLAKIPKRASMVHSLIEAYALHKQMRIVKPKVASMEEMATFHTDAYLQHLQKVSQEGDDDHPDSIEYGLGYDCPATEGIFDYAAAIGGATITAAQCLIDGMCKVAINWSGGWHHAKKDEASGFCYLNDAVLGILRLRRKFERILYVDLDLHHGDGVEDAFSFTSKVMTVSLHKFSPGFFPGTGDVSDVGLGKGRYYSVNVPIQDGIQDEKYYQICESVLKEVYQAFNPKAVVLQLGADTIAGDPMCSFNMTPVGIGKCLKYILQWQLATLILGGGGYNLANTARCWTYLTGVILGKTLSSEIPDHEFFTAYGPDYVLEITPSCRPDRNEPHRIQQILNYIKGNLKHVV
The data set is described as follows: HDAC inhibition assay, class I, fluorogenic peptide RHK(Ac)K(Ac)AMC. Conditions: up to 50 µM. It counts as biochemical.

The target in data set [9] is HDAC3 (Homo sapiens, UniProt O15379). Briefly: HDAC inhibition assay, class I, fluorogenic peptide RHKK(Ac)AMC. It counts as biochemical. Conditions: up to 50 µM.
Sequence of HDAC3 (O15379 whole entry): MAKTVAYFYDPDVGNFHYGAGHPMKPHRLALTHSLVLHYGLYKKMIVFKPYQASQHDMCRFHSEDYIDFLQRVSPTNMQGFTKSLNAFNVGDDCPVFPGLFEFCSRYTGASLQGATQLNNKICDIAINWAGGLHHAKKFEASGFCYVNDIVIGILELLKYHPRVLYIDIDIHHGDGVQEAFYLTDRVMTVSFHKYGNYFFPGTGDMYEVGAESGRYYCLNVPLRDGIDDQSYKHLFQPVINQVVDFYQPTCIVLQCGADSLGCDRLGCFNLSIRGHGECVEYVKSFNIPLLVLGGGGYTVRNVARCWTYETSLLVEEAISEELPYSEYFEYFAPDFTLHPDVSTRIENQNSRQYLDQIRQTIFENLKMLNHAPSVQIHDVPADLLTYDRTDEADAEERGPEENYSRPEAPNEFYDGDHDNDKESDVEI
Sequence of HDAC3 (Q9Y618 395-489 partner limits assumed): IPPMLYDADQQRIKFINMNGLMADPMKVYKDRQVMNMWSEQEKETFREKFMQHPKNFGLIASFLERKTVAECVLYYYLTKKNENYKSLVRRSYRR
The target of data set [10] is HDAC5 (Homo sapiens, UniProt Q9UQL6). The data set is described as follows: HDAC inhibition assay, class II A, fluorogenic HDAC Class2a substrate. Conditions: up to 100 µM.
Sequence of HDAC5 (Q9UQL6 whole entry): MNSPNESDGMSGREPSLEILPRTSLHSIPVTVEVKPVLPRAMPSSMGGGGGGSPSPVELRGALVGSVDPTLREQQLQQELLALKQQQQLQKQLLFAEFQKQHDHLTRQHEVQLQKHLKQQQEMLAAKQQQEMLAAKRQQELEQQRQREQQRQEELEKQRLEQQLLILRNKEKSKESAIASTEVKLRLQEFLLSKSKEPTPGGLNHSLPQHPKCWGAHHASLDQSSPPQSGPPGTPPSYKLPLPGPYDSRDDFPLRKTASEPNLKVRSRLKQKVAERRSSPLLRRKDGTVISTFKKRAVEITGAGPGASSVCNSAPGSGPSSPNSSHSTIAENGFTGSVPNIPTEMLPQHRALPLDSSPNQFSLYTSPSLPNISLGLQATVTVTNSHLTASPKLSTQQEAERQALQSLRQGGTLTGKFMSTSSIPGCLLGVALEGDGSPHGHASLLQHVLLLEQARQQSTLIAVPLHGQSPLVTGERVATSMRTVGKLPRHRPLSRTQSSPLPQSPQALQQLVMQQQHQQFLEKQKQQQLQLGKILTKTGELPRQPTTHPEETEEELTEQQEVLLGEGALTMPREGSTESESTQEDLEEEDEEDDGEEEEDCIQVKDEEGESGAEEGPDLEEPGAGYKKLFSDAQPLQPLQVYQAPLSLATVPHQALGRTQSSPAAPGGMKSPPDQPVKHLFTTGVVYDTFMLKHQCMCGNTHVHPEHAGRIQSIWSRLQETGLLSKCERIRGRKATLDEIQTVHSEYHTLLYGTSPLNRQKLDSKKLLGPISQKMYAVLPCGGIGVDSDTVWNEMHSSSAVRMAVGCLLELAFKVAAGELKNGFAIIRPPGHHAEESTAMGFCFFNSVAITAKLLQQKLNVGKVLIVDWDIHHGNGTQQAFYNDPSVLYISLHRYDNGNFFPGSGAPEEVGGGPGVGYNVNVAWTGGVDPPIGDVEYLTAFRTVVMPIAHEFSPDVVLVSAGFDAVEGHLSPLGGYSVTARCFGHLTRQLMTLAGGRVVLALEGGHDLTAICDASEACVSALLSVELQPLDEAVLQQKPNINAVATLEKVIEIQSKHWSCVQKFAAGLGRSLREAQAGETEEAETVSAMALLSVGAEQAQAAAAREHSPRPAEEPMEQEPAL
The target in data set [11] is T3, HDAC7 (Homo sapiens, UniProt Q8WUI4).
T3 sequence (Q8WUI4 1-952): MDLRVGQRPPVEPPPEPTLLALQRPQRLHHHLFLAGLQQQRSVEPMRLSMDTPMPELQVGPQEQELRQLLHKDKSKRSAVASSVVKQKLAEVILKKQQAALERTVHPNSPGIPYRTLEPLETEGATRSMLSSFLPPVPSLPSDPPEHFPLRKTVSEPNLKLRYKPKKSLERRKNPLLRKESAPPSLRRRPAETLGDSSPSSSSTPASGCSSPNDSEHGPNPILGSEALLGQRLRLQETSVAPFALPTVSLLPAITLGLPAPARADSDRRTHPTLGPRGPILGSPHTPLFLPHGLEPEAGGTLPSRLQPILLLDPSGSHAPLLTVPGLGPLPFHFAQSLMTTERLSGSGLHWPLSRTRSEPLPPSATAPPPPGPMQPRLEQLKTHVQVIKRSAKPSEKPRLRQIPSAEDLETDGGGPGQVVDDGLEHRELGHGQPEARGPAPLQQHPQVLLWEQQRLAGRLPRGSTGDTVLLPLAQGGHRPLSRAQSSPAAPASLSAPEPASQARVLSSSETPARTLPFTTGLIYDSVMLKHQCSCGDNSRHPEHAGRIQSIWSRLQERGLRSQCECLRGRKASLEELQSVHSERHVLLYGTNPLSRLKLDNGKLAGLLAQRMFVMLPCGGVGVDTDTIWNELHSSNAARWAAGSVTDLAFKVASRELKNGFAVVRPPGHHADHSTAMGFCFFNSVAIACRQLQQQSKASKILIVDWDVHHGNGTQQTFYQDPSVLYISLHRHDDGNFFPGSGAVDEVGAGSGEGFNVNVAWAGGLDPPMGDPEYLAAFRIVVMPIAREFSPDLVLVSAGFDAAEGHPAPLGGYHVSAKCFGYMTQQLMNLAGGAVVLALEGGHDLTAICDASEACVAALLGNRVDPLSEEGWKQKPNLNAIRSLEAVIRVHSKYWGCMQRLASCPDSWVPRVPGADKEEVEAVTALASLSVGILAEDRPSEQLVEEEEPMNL
The data set is described as above. The conditions noted are these: up to 100 µM.

Data set [12] relates to A549. The conditions noted are these: A549 cells; cited from earlier work.
Data set [13] concerns P-388. The conditions noted are these: P-388 cells; cited from earlier work.
The subject of data set [14] is HT-29. The conditions noted are these: HT-29 cells; cited from earlier work.

Sequence of HDAC2 (Q92769 whole entry): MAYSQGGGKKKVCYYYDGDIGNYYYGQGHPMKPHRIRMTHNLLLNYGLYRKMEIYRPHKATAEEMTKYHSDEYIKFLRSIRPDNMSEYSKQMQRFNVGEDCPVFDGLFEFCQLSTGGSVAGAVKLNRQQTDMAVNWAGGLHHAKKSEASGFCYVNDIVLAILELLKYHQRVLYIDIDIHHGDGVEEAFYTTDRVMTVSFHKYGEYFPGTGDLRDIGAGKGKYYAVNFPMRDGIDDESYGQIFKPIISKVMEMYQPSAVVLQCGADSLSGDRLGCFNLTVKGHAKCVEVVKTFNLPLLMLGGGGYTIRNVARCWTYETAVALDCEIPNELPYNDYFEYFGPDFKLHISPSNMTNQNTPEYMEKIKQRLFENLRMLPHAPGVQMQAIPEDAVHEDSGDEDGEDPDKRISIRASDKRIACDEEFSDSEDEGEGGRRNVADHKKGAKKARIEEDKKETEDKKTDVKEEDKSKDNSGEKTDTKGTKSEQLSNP
Sequence of HDAC4 (P56524 whole entry): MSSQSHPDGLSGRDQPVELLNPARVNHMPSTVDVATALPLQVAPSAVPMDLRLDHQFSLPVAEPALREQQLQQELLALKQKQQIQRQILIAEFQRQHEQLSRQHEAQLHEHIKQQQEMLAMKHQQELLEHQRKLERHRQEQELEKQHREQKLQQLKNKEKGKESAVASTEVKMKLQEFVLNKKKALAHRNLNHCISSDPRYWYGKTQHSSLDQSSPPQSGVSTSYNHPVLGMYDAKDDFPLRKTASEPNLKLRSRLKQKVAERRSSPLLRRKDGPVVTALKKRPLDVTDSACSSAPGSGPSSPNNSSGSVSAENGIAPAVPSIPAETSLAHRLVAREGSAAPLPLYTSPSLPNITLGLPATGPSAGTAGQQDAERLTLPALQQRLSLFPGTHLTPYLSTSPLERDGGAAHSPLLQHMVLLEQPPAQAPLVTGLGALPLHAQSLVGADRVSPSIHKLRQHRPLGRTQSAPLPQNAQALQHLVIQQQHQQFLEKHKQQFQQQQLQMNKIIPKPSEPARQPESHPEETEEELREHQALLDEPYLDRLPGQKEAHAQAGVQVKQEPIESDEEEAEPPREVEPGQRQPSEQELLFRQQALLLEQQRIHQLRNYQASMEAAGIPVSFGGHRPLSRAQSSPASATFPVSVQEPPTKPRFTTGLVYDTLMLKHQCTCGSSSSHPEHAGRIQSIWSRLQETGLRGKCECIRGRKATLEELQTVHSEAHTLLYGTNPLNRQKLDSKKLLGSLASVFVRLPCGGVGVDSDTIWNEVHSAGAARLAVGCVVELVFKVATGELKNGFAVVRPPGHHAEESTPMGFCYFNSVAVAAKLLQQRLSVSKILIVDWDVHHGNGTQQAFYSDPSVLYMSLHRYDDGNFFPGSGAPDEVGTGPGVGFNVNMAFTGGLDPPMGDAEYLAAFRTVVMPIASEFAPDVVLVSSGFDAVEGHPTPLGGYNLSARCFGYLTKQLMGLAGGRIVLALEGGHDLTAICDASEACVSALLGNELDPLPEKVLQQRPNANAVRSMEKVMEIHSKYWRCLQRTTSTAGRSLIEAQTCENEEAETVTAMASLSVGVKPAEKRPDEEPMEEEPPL
Sequence of HDAC1 (Q13547 whole entry): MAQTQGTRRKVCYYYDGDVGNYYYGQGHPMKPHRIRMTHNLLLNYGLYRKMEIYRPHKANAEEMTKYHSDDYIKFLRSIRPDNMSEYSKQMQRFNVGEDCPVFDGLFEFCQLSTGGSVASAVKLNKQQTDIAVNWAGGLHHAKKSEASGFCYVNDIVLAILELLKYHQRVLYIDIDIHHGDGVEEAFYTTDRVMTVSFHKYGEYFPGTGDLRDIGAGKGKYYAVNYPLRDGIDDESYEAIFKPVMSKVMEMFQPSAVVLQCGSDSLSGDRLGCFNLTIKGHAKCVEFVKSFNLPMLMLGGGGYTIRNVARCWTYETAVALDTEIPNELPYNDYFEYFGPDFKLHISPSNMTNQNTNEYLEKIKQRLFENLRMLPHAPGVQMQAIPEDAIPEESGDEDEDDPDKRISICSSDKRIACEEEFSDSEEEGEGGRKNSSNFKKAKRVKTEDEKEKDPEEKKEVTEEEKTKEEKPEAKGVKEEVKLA

With `C=C1CC/C=C(\C)CC[C@@H]2C(C(CC3OC3(C)C)OC(C)=O)=CO[C@H](OC)[C@@H]12` (relative stereo) [Compound 2], the “cell death in D3 cells” value in data set [1] was “not in D3 cells”. For the same molecule, in data set [2], the “optimal concentration for apoptosis induction” value turned out to be 11.5 µM and the “cell death in W2 cells” value is recorded as “induce measurable cell death in W2”.

In the case of `C=C1CC[C@@H]2O[C@@]2(C)CC[C@H](/C(=C/CC2OC2(C)C)CO)[C@H]1C(=O)OC` (relative stereo) [Compound 3], in data set [3], the “inhibition of HDAC9” value is given as “did not significantly inhibit”. In addition, the “inhibition of HDAC4” value in data set [4] is on record as “did not significantly inhibit”. The “inhibition of HDAC2” value in [5] is “did not significantly inhibit”. In data set [6], the “inhibition of HDAC1” value was “did not significantly inhibit”. The “inhibition of HDAC6” value in data set [7] is “inhibits selectively HDAC6 in high micromolar concentrations”. Further, the IC50 was 80.9 µM in [7] (10-dose, 3-fold serial dilution, Compound 3 in duplicate starting at 120 µM, read-out: IC50); roughly 80 µM in [7] (as stated in text and legend of Figure 6, read-out: IC50); 80.9 µM in data set [7] (curve fit printed in the picture of Figure 6, read-out: HDAC 6: EC50). The molecule further registered an HILLSLOPE in data set [7] (curve fit) of −1.19. Moreover, the “inhibition of HDAC8” value in [8] is on record as “did not significantly inhibit”. Further, in data set [9], the “inhibition of HDAC3” value is “did not significantly inhibit”. In addition, the “cell death in D3 cells” value in data set [1] is “not in D3 cells”. In addition, in data set [10], the “inhibition of HDAC5” value is “did not significantly inhibit”. Moreover, in data set [11], the “inhibition of HDAC7” value was “did not significantly inhibit”. Besides, the “optimal concentration for apoptosis induction” value in [2] is listed as 1.2 µM. In data set [2], the “cell death in W2 cells” value is “induce measurable cell death in W2”.

Regarding `C=C1CC[C@@H]2O[C@@]2(C)CC[C@H](/C(=C\CC2OC2(C)C)COC(C)=O)[C@H]1C(=O)OC` (stereo partly shown) [xenitacin], the cytotoxicity entry in [12], in data set [13] and in [14] was “most active compound in its group” each time.
